In US10588317B2, “Isoxazoline-substituted benzamides and analogues as insecticides” (priority 2015, dated 2020):

Tests used:
Assay type in all cases: in vivo
Plutella xylostella = Plutella xylostella (diamond back moth), artificial diet; conditions: 120 h, application rate 200 ppm, L2 larvae, 5 days after infestation, read-out: effect in at least one of the two categories (mortality or growth inhibition)
Method in brief: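 L2 larvae (10-15 per well) fed on compound-treated, dried artificial diet; test solutions diluted in water from 10'000 ppm DMSO stocks. Readout 5 days post-infestation as mortality or growth inhibition versus untreated diet, with at least 80% effect at 200 ppm as threshold.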

Euschistus heros = Euschistus heros (neotropical brown stink bug), sprayed soybean leaves; conditions: 120 h, application rate 200 ppm, N2 nymphs, 5 days after infestation, read-out: effect in at least one of the two categories (mortality or growth inhibition)
Method in brief: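 Scored 5 days post-infestation versus untreated controls, for both mortality and growth inhibition: N2 nymphs placed on agar-mounted soybean leaves previously sprayed at 200 ppm with aqueous test solutions from DMSO stocks and left to dry.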

Myzus persicae = Myzus persicae (green peach aphid): feeding/contact activity; conditions: 144 h, application rate 200 ppm, aphid population of mixed ages, 6 days after infestation, read-out: mortality
Protocol: Sunflower leaf discs were placed onto agar in a 24-well microtiter plate and sprayed with aqueous test solutions prepared from 10'000 ppm DMSO stock solutions. After drying, the leaf discs were infested with an aphid population of mixed ages. The samples were assessed for mortality 6 days after infestation.

Spodoptera littoralis = Spodoptera littoralis (Egyptian cotton leaf worm), sprayed cotton leaf discs; conditions: foliar, 72 h, application rate 200 ppm, L1 larvae, 3 days after infestation, read-out: control (mortality, anti-feeding effect, growth inhibition)
Method in brief: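 Five first-instar larvae placed on dried cotton leaf discs (on agar) previously sprayed with aqueous dilutions of 10'000 ppm DMSO stocks. Scored at 3 days against untreated discs for mortality, feeding inhibition and growth inhibition; any category above untreated counts as control.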

Thrips tabaci = Thrips tabaci (onion thrips): feeding/contact activity; conditions: 144 h, application rate 200 ppm, Thrips population of mixed ages, 6 days after infestation, read-out: mortality
Protocol: Sunflower leaf discs were placed on agar in 24-well microtiter plates and sprayed with aqueous test solutions prepared from 10'000 ppm DMSO stock solutions. After drying the leaf discs were infested with a Thrips population of mixed ages. The samples were assessed for mortality 6 days after infestation.

Tetranychus urticae = Tetranychus urticae (two-spotted spider mite): feeding/contact activity; conditions: 192 h, application rate 200 ppm, mixed population (mobile stages), 8 days after infestation, read-out: mortality
Protocol: Bean leaf discs on agar in 24-well microtiter plates were sprayed with aqueous test solutions prepared from 10'000 ppm DMSO stock solutions. After drying the leaf discs were infested with a mite population of mixed ages. The samples were assessed for mortality on mixed population (mobile stages) 8 days after infestation.

Diabrotica balteata = Diabrotica balteata (corn root worm), sprayed maize sprouts; conditions: 96 h, application rate 200 ppm, L2 larvae, 4 days after infestation, read-out: effect in at least one of the two categories (mortality or growth inhibition)
Method in brief: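 Read-out at 4 days post-infestation: mortality and growth inhibition relative to untreated samples. Test solutions (200 ppm, from DMSO stocks) were sprayed onto agar-held maize sprouts, which after drying received 6–10 L2 larvae per well.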

Cc1cc(C2=NO[C@](c3cc(Cl)c(F)c(Cl)c3)(C(F)(F)F)C2)ccc1C(=O)N[C@H]1CON(S(=O)(=O)CC(F)(F)F)C1 [Compound A192, 4-[(5R)-5-(3,5-dichloro-4-fluorophenyl)-5-(trifluoromethyl)-4H-1,2-oxazol-3-yl]-2-methyl-N-[(4R)-2-(2,2,2-trifluoroethylsulfonyl)-1,2-oxazolidin-4-yl]benzamide]
≥ 80%: percent effect (mortality or growth inhibition) at 200 ppm (Plutella xylostella) | percent effect (mortality or growth inhibition) at 200 ppm (Euschistus heros) | mortality at 200 ppm (Myzus persicae) | mortality at 200 ppm (Spodoptera littoralis) | mortality at 200 ppm (Thrips tabaci) | mortality at 200 ppm (Tetranychus urticae) | percent effect (mortality or growth inhibition) at 200 ppm (Diabrotica balteata)

Cc1cc(C2=NO[C@@](c3cc(F)cc(C(F)(F)F)c3)(C(F)(F)F)C2)ccc1C(=O)N[C@@H]1CON(S(C)(=O)=O)C1 [Compound A172]
≥ 80%: percent effect (mortality or growth inhibition) at 200 ppm (Plutella xylostella) | percent effect (mortality or growth inhibition) at 200 ppm (Euschistus heros) | mortality at 200 ppm (Myzus persicae) | mortality at 200 ppm (Spodoptera littoralis) | mortality at 200 ppm (Thrips tabaci) | mortality at 200 ppm (Tetranychus urticae) | percent effect (mortality or growth inhibition) at 200 ppm (Diabrotica balteata)

Cc1cc(C2=NO[C@@](c3cc(Cl)c(Cl)c(Cl)c3)(C(F)(F)F)C2)ccc1C(=O)NC1CON(S(=O)(=O)N(C)Cc2ccccc2)C1 (stereo partly drawn) [Compound A86, N-[2-[benzyl(methyl)sulfamoyl]isoxazolidin-4-yl]-2-methyl-4-[(5S)-5-(3,4,5-trichlorophenyl)-5-(trifluoromethyl)-4H-isoxazol-3-yl]benzamide]
≥ 80%: percent effect (mortality or growth inhibition) at 200 ppm (Plutella xylostella) | percent effect (mortality or growth inhibition) at 200 ppm (Euschistus heros) | mortality at 200 ppm (Myzus persicae) | mortality at 200 ppm (Spodoptera littoralis) | mortality at 200 ppm (Thrips tabaci) | mortality at 200 ppm (Tetranychus urticae) | percent effect (mortality or growth inhibition) at 200 ppm (Diabrotica balteata)

Cc1cc(C2=NO[C@@](c3cc(Cl)c(C(F)F)c(Cl)c3)(C(F)(F)F)C2)ccc1C(=O)N[C@@H]1CON(S(=O)(=O)N(C)C)C1 [Compound A196, 4-[(5S)-5-[3,5-dichloro-4-(difluoromethyl)phenyl]-5-(trifluoromethyl)-4H-1,2-oxazol-3-yl]-N-[(4S)-2-(dimethylsulfamoyl)-1,2-oxazolidin-4-yl]-2-methylbenzamide]
≥ 80%: percent effect (mortality or growth inhibition) at 200 ppm (Plutella xylostella) | percent effect (mortality or growth inhibition) at 200 ppm (Euschistus heros) | mortality at 200 ppm (Myzus persicae) | mortality at 200 ppm (Spodoptera littoralis) | mortality at 200 ppm (Thrips tabaci) | mortality at 200 ppm (Tetranychus urticae) | percent effect (mortality or growth inhibition) at 200 ppm (Diabrotica balteata)

CNS(=O)(=O)N1C[C@H](NC(=O)c2ccc(C3=NO[C@@](c4ccc(F)c(C(F)(F)F)c4)(C(F)(F)F)C3)cc2C)CO1 [Compound A181]
≥ 80%: percent effect (mortality or growth inhibition) at 200 ppm (Plutella xylostella) | percent effect (mortality or growth inhibition) at 200 ppm (Euschistus heros) | mortality at 200 ppm (Myzus persicae) | mortality at 200 ppm (Spodoptera littoralis) | mortality at 200 ppm (Thrips tabaci) | mortality at 200 ppm (Tetranychus urticae) | percent effect (mortality or growth inhibition) at 200 ppm (Diabrotica balteata)

Cc1cc(C2=NO[C@@](c3cc(Cl)c(F)c(Cl)c3)(C(F)(F)F)C2)ccc1C(=O)NC1CON(S(=O)(=O)N2CCCC2)C1 (stereo partly drawn) [Compound A99, 4-[(5S)-5-(3,5-dichloro-4-fluoro-phenyl)-5-(trifluoromethyl)-4H-isoxazol-3-yl]-2-methyl-N-(2-pyrrolidin-1-ylsulfonylisoxazolidin-4-yl)benzamide]
≥ 80%: percent effect (mortality or growth inhibition) at 200 ppm (Plutella xylostella) | percent effect (mortality or growth inhibition) at 200 ppm (Euschistus heros) | mortality at 200 ppm (Myzus persicae) | mortality at 200 ppm (Spodoptera littoralis) | mortality at 200 ppm (Thrips tabaci) | mortality at 200 ppm (Tetranychus urticae) | percent effect (mortality or growth inhibition) at 200 ppm (Diabrotica balteata)

C#CCN(CC)S(=O)(=O)N1C[C@@H](NC(=O)c2ccc(C3=NO[C@@](c4cc(Cl)cc(Cl)c4)(C(F)(F)F)C3)cc2Cl)CO1 [Compound A161, 2-chloro-4-[(5S)-5-(3,5-dichlorophenyl)-5-(trifluoromethyl)-4H-isoxazol-3-yl]-N-[(4R)-2-[ethyl(prop-2-ynyl)sulfamoyl]isoxazolidin-4-yl]benzamide]
≥ 80%: percent effect (mortality or growth inhibition) at 200 ppm (Plutella xylostella) | percent effect (mortality or growth inhibition) at 200 ppm (Euschistus heros) | mortality at 200 ppm (Myzus persicae) | mortality at 200 ppm (Spodoptera littoralis) | mortality at 200 ppm (Thrips tabaci) | mortality at 200 ppm (Tetranychus urticae) | percent effect (mortality or growth inhibition) at 200 ppm (Diabrotica balteata)

CCCN(C)S(=O)(=O)N1CC(NC(=O)c2ccc(C3=NO[C@@](c4cc(Cl)c(Cl)c(Cl)c4)(C(F)(F)F)C3)cc2C)CO1 (stereo partly drawn) [Compound A84, 2-methyl-N-[2-[methyl(propyl)sulfamoyl]isoxazolidin-4-yl]-4-[(5S)-5-(3,4,5-trichlorophenyl)-5-(trifluoromethyl)-4H-isoxazol-3-yl]benzamide]
≥ 80%: percent effect (mortality or growth inhibition) at 200 ppm (Plutella xylostella) | percent effect (mortality or growth inhibition) at 200 ppm (Euschistus heros) | mortality at 200 ppm (Myzus persicae) | mortality at 200 ppm (Spodoptera littoralis) | mortality at 200 ppm (Thrips tabaci) | mortality at 200 ppm (Tetranychus urticae) | percent effect (mortality or growth inhibition) at 200 ppm (Diabrotica balteata)

Cc1cc(C2=NO[C@@](c3cc(Cl)c(F)c(Cl)c3)(C(F)(F)F)C2)ccc1C(=O)N[C@@H]1CON(S(=O)(=O)N(C)C2(C#N)CC2)C1 [Compound A187]
≥ 80%: percent effect (mortality or growth inhibition) at 200 ppm (Plutella xylostella) | percent effect (mortality or growth inhibition) at 200 ppm (Euschistus heros) | mortality at 200 ppm (Myzus persicae) | mortality at 200 ppm (Spodoptera littoralis) | mortality at 200 ppm (Thrips tabaci) | mortality at 200 ppm (Tetranychus urticae) | percent effect (mortality or growth inhibition) at 200 ppm (Diabrotica balteata)

Cc1cc(C2=NO[C@@](c3cc(Cl)c(F)c(Cl)c3)(C(F)(F)F)C2)ccc1C(=O)NC1CON(S(=O)(=O)N(C)C(=O)N(C)C)C1 (stereo partly drawn) [Compound A74]
≥ 80%: percent effect (mortality or growth inhibition) at 200 ppm (Plutella xylostella) | percent effect (mortality or growth inhibition) at 200 ppm (Euschistus heros) | mortality at 200 ppm (Myzus persicae) | mortality at 200 ppm (Spodoptera littoralis) | mortality at 200 ppm (Thrips tabaci) | mortality at 200 ppm (Tetranychus urticae) | percent effect (mortality or growth inhibition) at 200 ppm (Diabrotica balteata)

CNS(=O)(=O)N1C[C@@H](NC(=O)c2ccc(C3=NO[C@](c4cc(Cl)c(C(F)F)c(Cl)c4)(C(F)(F)F)C3)cc2C)CO1 [Compound A206, 4-[(5R)-5-[3,5-dichloro-4-(difluoromethyl)phenyl]-5-(trifluoromethyl)-4H-1,2-oxazol-3-yl]-2-methyl-N-[(4R)-2-(methylsulfamoyl)-1,2-oxazolidin-4-yl]benzamide]
≥ 80%: percent effect (mortality or growth inhibition) at 200 ppm (Plutella xylostella) | percent effect (mortality or growth inhibition) at 200 ppm (Euschistus heros) | mortality at 200 ppm (Myzus persicae) | mortality at 200 ppm (Spodoptera littoralis) | mortality at 200 ppm (Thrips tabaci) | mortality at 200 ppm (Tetranychus urticae) | percent effect (mortality or growth inhibition) at 200 ppm (Diabrotica balteata)

Cc1cc(C2=NO[C@@](c3cc(Cl)c(F)c(Cl)c3)(C(F)(F)F)C2)ccc1C(=O)NC1CON(S(=O)(=O)N(C)C(=O)c2ccccc2)C1 (stereo partly drawn) [Compound A80, N-[2-[benzoyl(methyl)sulfamoyl]isoxazolidin-4-yl]-4-[(5S)-5-(3,5-dichloro-4-fluoro-phenyl)-5-(trifluoromethyl)-4H-isoxazol-3-yl]-2-methyl-benzamide]
≥ 80%: percent effect (mortality or growth inhibition) at 200 ppm (Plutella xylostella) | percent effect (mortality or growth inhibition) at 200 ppm (Euschistus heros) | mortality at 200 ppm (Myzus persicae) | mortality at 200 ppm (Spodoptera littoralis) | mortality at 200 ppm (Thrips tabaci) | mortality at 200 ppm (Tetranychus urticae) | percent effect (mortality or growth inhibition) at 200 ppm (Diabrotica balteata)
